Experimental data: patent US9328138B2 (priority 2011, dated 2016)

What was measured:
[1] = molecular target: T1, HCV genotype 1b (BK) NS3 modified enzyme with a R155K mutation (Hepatitis C virus genotype 1b, UniProt P26663, R1181K); experiment: HCV NS3 protease time-resolved fluorescence (TRF) assay, genotype 1b R155K; type: biochemical; details: Ki 1b R155K
T1 construct: HCV genotype 1b (BK) NS3 modified enzyme
Method: (§1) The HCV NS3 protease inhibitory activity of the present compounds may be tested using assays known in the art. One such assay is HCV NS3 protease time-resolved fluorescence (TRF) assay as described below and in International Patent Application Publication No. WO2006/102087. Other examples of such assays are described in e.g., International Patent Application Publication No. WO2005/046712. The assay is performed in a final volume of 100 μl in assay buffer containing 50 mM HEPES, pH 7.5, 150 mM NaCl, 15% glycerol, 0.15% Triton X-100, 10 mM DTT, and 0.1% PEG 8000. NS3 protease is pre-incubated with various concentrations of inhibitors in DMSO for 30 minutes. The reaction is initiated by adding the TRF peptide substrate (final concentration 100 nM). NS3 mediated hydrolysis of the substrate is quenched after 1 hour at room temperature with 100 μl of 500 mM MES, pH 5.5. Product fluorescence is detected using either a VICTOR V2 or FUSION fluorophotometer (Perkin Elmer Life and Analytical Sciences) with excitation at 340 nm and emission at 615 nm with a 400 μs delay. Testing concentrations of different enzyme forms are selected to result in a signal to background ratio (S/B) of 10-30. IC50 values are derived using a standard four-parameter fit to the data. K; values are derived from IC50 values using the following formula, IC50=Ki(1+[S]/Km), Eqn (1), where [S] is the concentration of substrate peptide in the reaction and KM is the Michaelis constant. See Gallinari et al., 1999, Biochem. 38:5620-32; Gallinari et al., 1998, J. Virol. 72:6758-69; Taliani et al., 1996, Anal. Biochem. 240:60-67.
(§2) The HCV NS3 protease inhibitory activity was measured using the protease time-resolved fluorescence (TRF) assay as described below and in International Patent Application Publication No. WO 2006/102087. The assay was performed with HCV genotype 1b (BK) NS3 modified enzyme with a R155K mutation and genotype 3a (3A-1).
(§3) The assay was performed in a final volume of 50 μl in assay buffer containing 50 mM HEPES, pH 7.5, 150 mM NaCl, 15% glycerol, 0.15% TRITON X-100, 10 mM DTT, and 0.1% PEG 8000. NS3 and NS4A protease is pre-incubated with various concentrations of inhibitors in DMSO for 10 minutes. The reaction was initiated by adding the TRF peptide substrate (final concentration 25 nM) and NS3 mediated hydrolysis of the substrate proceeds for 6 hours at room temperature. Product fluorescence is detected using an Envision plate reader (Perkin Elmer) with excitation at 340 nm and emission at 615 nm with a 400 μs delay. Testing concentrations of the enzymes were selected to result in a signal to background ratio (S/B) of 5-20. IC50 values are derived using a standard four-parameter fit to the data.
(§4) NS3 and NS4A protease is pre-incubated with various concentrations of inhibitors in DMSO for 30 minutes. The reaction is initiated by adding the TRF peptide substrate (final concentration 100 nM). NS3 mediated hydrolysis of the substrate is quenched after 1 hour at room temperature with 100 μl of 500 mM MES, pH 5.5. Product fluorescence is detected using either a VICTOR V2 or FUSION fluorophotometer (Perkin Elmer Life and Analytical Sciences) with excitation at 340 nm and emission at 615 nm with a 400 μs delay. Testing concentrations of the enzymes are selected to result in a signal to background ratio (S/B) of 8-30. IC50 values are derived using a standard four-parameter fit to the data. Ki values are derived from IC50 values using the following formula, IC50=Ki(1+[S][…]), Eqn (1), where [S] is the concentration of substrate peptide in the reaction and KM is the Michaelis constant. See Gallinari et al., 1999, Biochem. 38:5620-32; Gallinari et al., 1998, J. Virol. 72:6758-69; and Taliani et al., 1996, Anal. Biochem. 240:60-67. ND means not determined.

[2] = molecular target: HCV NS3 protease genotype 3a (3A-1) (Hepatitis C virus genotype 3a, UniProt Q81258); experiment: HCV NS3 protease time-resolved fluorescence (TRF) assay, genotype 3a; type: biochemical; details: Ki 3a
Method: as §1, §2, §3, §4

[3] = genotype 1b (BK) NS3 R155K, single value

Compound | Ki [1, 3] [nM] | Ki [2] [nM] | Ki ([1]; first of two values printed in the cell (not explained)) [nM] | Ki ([1]; second of two values printed in the cell (not explained)) [nM]
COc1c2c(nc3ccccc13)O[C@@H]1C[C@@H](C(=O)N[C@]3(C(=O)NS(=O)(=O)C4CC4)C[C@H]3C3CC3)N(C1)C(=O)[C@H](C1CCCC1)NC(=O)O[C@@H]1CCC[C@H]1CC/C=C/C2 [Example 13, (3aR,7S,10S,12R,21E,24aS)-7-cyclopentyl-N-[(1S,2R)-2-[(cyclopropylsulfonyl)carbamoyl]-1,1′-bi(cyclopropyl)-2-yl]-19-methoxy-5,8-dioxo-1,2,3,3a,5,6,7,8,11,12,20,23,24,24a-tetradecahydro-10H-9,12-methanocyclopenta[18,19][1,10,3,6] dioxadiazacyclononadecino[11,12-b]quinoline-10-carboxamide] | 0.93 | 15 |  | 
C=C[C@@H]1C[C@]1(NC(=O)[C@@H]1C[C@@H]2CN1C(=O)[C@H](C(C)(C)C)NC(=O)O[C@@H]1C[C@H]1CCCCCc1c(nc3ccccc3c1OCC1CCCN(CC)C1)O2)C(=O)NS(=O)(=O)C1(C)CC1 (stereo partly drawn) [Example 139, (1aR,5S,8S,10R,22aR)-5-tert-butyl-N-[(1R,2S)-2-ethenyl-1-{[(1-methylcyclopropyl)sulfonyl]carbamoyl}cyclopropyl]-17-[(1-ethylpiperidin-3-yl)methoxy]-3,6-dioxo-1,1a,3,4,5,6,9,10,18,19, 20,21,22,22a-tetradeca hydro-8H-7,10-methanocyclopropa[18,19] [1,10,3,6]dioxadiazacyclo nonadecino[11,12-b]quinoline-8-carboxamide] | 0.1 | 0.38 |  | 
C=C[C@@H]1C[C@]1(NC(=O)[C@@H]1C[C@@H]2CN1C(=O)[C@H](C(C)(C)C)NC(=O)O[C@@H]1CCC[C@H]1CC/C=C\Cc1c(nc3ccccc3c1OC)O2)C(=O)NS(=O)(=O)C1CC1 [Example 7, (3aR,7S,10S,12R,21Z,24aS)-7-tert-butyl-N-{(1R,2S)-1-[(cyclopropylsulfonyl)carbamoyl]-2-ethenylcyclopropyl}-19-methoxy-5,8-dioxo-1,2,3,3a,5,6,7,8,11,12,20,23,24,24a-tetradecahydro-10H-9,12-methanocyclopenta[18,19][1,10,3,6] dioxadiazacyclononadecino[11,12-b]quinoline-10-carboxamide] | 0.76 | 17 |  | 
C=C[C@@H]1C[C@]1(NC(=O)[C@@H]1C[C@@H]2CN1C(=O)[C@H](CC1CCCCC1)NC(=O)O[C@@H]1C[C@H]1CCCCCc1c(nc3ccccc3c1OCCN1CCOCC1)O2)C(=O)NS(=O)(=O)C1(C)CC1 [Example 125, (1aR,5S,8S,10R,22aR)-5-(cyclohexylmethyl)-N-[(1R,2S)-2-ethenyl-1-{[(1-methylcyclopropyl)sulfonyl]carbamoyl}cyclopropyl]-17-[2-(morpholin-4-yl)ethoxy]-3,6-dioxo-1,1a,3,4,5,6,9,10,18,19,20, 21,22,22a-tetradecahydro-8H-7,10-methanocyclopropa [18,19][1,10,3,6]dioxadiazacyclo nonadecino[11,12-b]quinoline-8-carboxamide] | 4.1 | 114 |  | 
C=C[C@@H]1C[C@]1(NC(=O)[C@@H]1C[C@@H]2CN1C(=O)[C@H](C(C)(C)C)NC(=O)O[C@@H]1CCC[C@H]1CCCCCc1c(nc3ccccc3c1OCCN1CCOCC1)O2)C(=O)NS(=O)(=O)C1(C)CC1 [Example 105, (3aR,7S,10S,12R,24aR)-7-tert-butyl-N-[(1R,2S)-2-ethenyl-1-{[(1-methyl-cyclopropyl)sulfonyl]carbamoyl}cyclopropyl]-19-[2-(morpholin-4-yl)ethoxy]-5,8-dioxo-1,2,3,3a, 5,6,7,8,11,12,20,21, 22,23,24,24a-hexadeca hydro-10H-9,12-methanocyclopenta [18,19][1,10,3,6]dioxadiazacyclo nonadecino[11,12-b]quinoline-10-carboxamide] | 0.43 | 14 |  | 
C=C[C@@H]1C[C@]1(NC(=O)[C@@H]1C[C@@H]2CN1C(=O)[C@H](C1(C)CCCCC1)NC(=O)O[C@@H]1C[C@H]1CCCCCc1c(nc3ccccc3c1OC1CC3CCC(C1)N3C)O2)C(=O)NS(=O)(=O)C1(C)CC1 (stereo partly drawn) [Example 263, (1aR,5S,8S,10R,22aR)—N-[(1R,2S)-2-ethenyl-1-{[(1-methylcyclopropyl)sulfonyl]carbamoyl}cyclopropyl]-17-[(8-methyl-8-azabicyclo[3.2.1]oct-3-yl)oxy]-5-(1-methylcyclohexyl)-3,6-dioxo-1,1a,3,4,5,6,9,10,18,19,20,21,22,22a-tetradecahydro-8H-7,10-methanocyclopropa[18,19][1,10,3,6]dioxadiazacyclononadecino[11,12-b]quinoline-8-carboxamide] |  | 0.041 | 0.006 | 0.011
C=C[C@@H]1C[C@]1(NC(=O)[C@@H]1C[C@@H]2CN1C(=O)[C@H](C1CCCC1)NC(=O)O[C@@H]1CCC[C@H]1CC/C=C/Cc1c(nc3ccccc3c1OCCN1CCCC1=O)O2)C(=O)NS(=O)(=O)C1CC1 [Example 79, (3aR,7S,10S,12R,21E,24aS)-7-cyclo pentyl-N-{(1R,2S)-1-[(cyclopropylsulfonyl)carbamoyl]-2-ethenylcyclopropyl}-5,8-dioxo-19-[2-(2-oxopyrrolidin-1-yl)ethoxy]-1,2,3,3a,5,6,7,8,11,12,20,23,24,24a-tetradeca hydro-10H-9,12-methanocyclopenta[18,19][1,10,3,6] dioxadiaza cyclononadecino[11,12-b]quinoline-10-carboxamide] | 0.06 | 1.8 |  | 
C=C[C@@H]1C[C@]1(NC(=O)[C@@H]1C[C@@H]2CN1C(=O)[C@H](C1CCCC1)NC(=O)O[C@@H]1CCC[C@H]1CC/C=C/Cc1c(nc3ccccc3c1OCCCN1CCCC(F)(F)C1)O2)C(=O)NS(=O)(=O)C1(C)CC1 [Example 83, (3aR,7S,10S,12R,21E,24aS)-7-cyclo pentyl-19-[3-(3,3-difluoropiperidin-1-yl)propoxy]-N-[(1R,s)-2-ethenyl-1-{[(1-methylcyclopropyl)sulfonyl]carbamoyl}cyclopropyl]-5,8-dioxo-1,2,3,3a,5,6,7,8,11,12,20,23,24,24a-tetradecahydro-10H-9,12-methanocyclopenta[18,19] [1,10,3,6]dioxadiazacyclononadecino [11,12-b]quinoline-10-carboxamide] | 1.1 | 23 |  | 
C=C[C@@H]1C[C@]1(NC(=O)[C@@H]1C[C@@H]2CN1C(=O)[C@H](C(C)(C)C)NC(=O)O[C@@H]1C[C@H]1CCCCCc1c(nc3c(OC)cccc3c1OCCCN1CC3(COC3)C1)O2)C(=O)NS(=O)(=O)C1(C)CC1 [Example 153, (1aR,5S,8S,10R,22aR)-5-tert-butyl-N-[(1R,2S)-2-ethenyl-1-{[(1-methylcyclopropyl)sulfonyl]carbamoyl}cyclopropyl]-13-methoxy-17-[3-(2-oxa-6-azaspiro[3.3]hept-6-yl)propoxy]-3,6-dioxo-1,1a, 3,4,5,6,9,10,18,19,20,21,22,22a-tetradeca hydro-8H-7,10-methanocyclopropa[18,19][1,10,3,6] dioxadiazacyclononadecino [11,12-b]quinoline-8-carboxamide] | 0.059 | 0.61 |  | 
